One assay has as its target T1, Cyclin E/CDK2 (Homo sapiens, UniProt P24941).
T1 construct: made in house; host or cells: insect cells
The assay is described as follows: CDK2 Flash Plate Assay (Rb phosphorylation, 33P-ATP). The assay is classed as biochemical. How it is done:
To determine inhibition of CDK2 activity, purified recombinant retinoblastoma (Rb) protein was coated on 96 well FlashPlates (New England Nuclear, Boston, Mass.). […] Recombinant active human Cyclin E/CDK2 complexes were partially purified from extracts of insect cells. […] Plates were incubated for 25 minutes at room temperature with shaking, then washed and counted in the Topcount scintillation counter (Packard Instrument Co., Downers Grove, Ill.). Dilutions of test compounds were tested in duplicate in each assay. The percent inhibition of Rb phosphorylation, which is a measure of the inhibition of CDK2 activity, was determined according to the following formula:
[formula] where “test compound” refers to the average counts per minute of the test duplicates, “nonspecific” refers to the average counts per minute when no Cyclin E/CDK2 was added, and “total” refers to the average counts per minute when no compound was added.

The test system of the next assay is H460a. Description: H460a cell-based MTT proliferation assay. Conditions: 120 h, 5 days post addition of test compound, read-out: Antiproliferative Activity H460a Assay IC90. Here is the method:
The H460a cell line was purchased from (ATCC; Rockville, Md.) and was grown in the medium recommended by ATCC. For analysis of the effect of the test compounds on growth of these cells, the cells were plated at 150 cells per well in a 96-well tissue culture plate, and were incubated overnight at 37° C. with 5% CO2. The next day, the test compounds were dissolved in 100% dimethyl sulfoxide (DMSO) to yield a 10 mM stock solution. Each compound was diluted with sterile medium to 1 mM in a sufficient quantity to yield a final concentration of 120 μM. The compounds were then serially diluted in medium with 1.2% DMSO. One-fourth final volume of the diluted compounds was transferred to 96 well plates. Test compounds were assayed in duplicate. […] The plates were returned to the incubator, and 5 days post addition of test compound, were analyzed as described below. […] Absorbencies were read in a microtiter plate reader (Molecular Dynamics) at a wavelength of 570 nm with a 650 nm reference. Percent inhibition was calculated by subtracting the absorbance of the blank (no cell) wells from all wells, then subtracting the division of the average absorbance of each test duplicate by the average of the controls from 1.00. Inhibitory concentrations (IC50) were determined from the linear regression of a plot of the logarithm of the concentration versus the percent inhibition.

Another assay has as its system FGF-stimulated HUVEC. Description: FGF-stimulated HUVEC proliferation assay (BrdU). Format: cell-based. Particulars: Homo sapiens, BrdU labeling, FGF 5 ng per mL, 24 hour exposure, read-out: Antiproliferative Activity FGF-stimulated HUVEC Assay IC50. How it is done:
The antiproliferative activity of test compounds of this invention in cell-based assays was evaluated by BrdU assay using the BrdU kit (Roche Biochemicals 1-647-229). Human umbilical vein endothelial cells (HUVEC, Clonetics CC-2519) were cultured in EGM-2 (Clonetics CC-3162) medium and seeded at 10000 cells per well in a volume of 200 μL of EGM-2 (Clonetics CC-3162) media in a 96-well flat bottom plates (Costar 3595) overnight. After 24 hours of growth at 37° C. with 5% CO2, the incubation media was removed slowly by aspiration, and the content of each well was washed with 300 μL pre-warmed EBM-2 (Clonetics CC-3156) containing 50 μg per mL of gentamycin and 50 ng per mL of amphotercin-B (Clonetics CC-4083). Subsequently, the remaining media was again aspirated and replaced with 160 μL per well of serum starvation media (EBM-2 supplemented with 1% heat inactivated FBS (Clonetics CC-4102), 50 μg per mL gentamycin and 50 ng per mL of amphotercin-B (Clonetics CC-4083), 10 units per mL of Wyeth-Ayerst heparin (NDC0641-0391-25), and 2 mM L-glutamine (GIBCO 25030-081). After serum starving the cells for 24 hours, 20 μL of test compound at 10× test concentration in serum starvation medium with 2.5% DMSO was added to the appropriate wells. The control wells contained 20 μL of serum starvation medium with 2.5% DMSO. Plates were returned to the incubator for 2 hours. After pre-incubating the cells with the test compounds for 2 hours, 20 μL of growth factors at 10X assay concentration diluted in serum starvation media, FGF at 50 ng per mL, or VEGF (R&D systems 293-VE) at 200 ng per mL were added. The final concentration of FGF in the assay was 5 ng per mL and the final concentration of VEGF in the assays was 20 ng per mL. The growth factor free control wells had 20 μL per well of serum starvation media with the same amount of BSA as the wells with growth factors. The plates were returned to the incubator for an additional 22 hours.
After 24 hour exposure to the test compounds, the cells were labeled with BrdU (Roche Biochemicals 1-647-229), by adding 20 μL per well of BrdU labeling reagent that has been diluted (1:100) in serum starvation medium. The plates were then returned to the incubator for 4 hours. The labeling medium was removed by draining the medium onto paper towels. […] The plates were read at 450 nm with reference wavelength of 650 nm. The percent inhibition for each test compound was calculated by subtracting the absorbency of the blank (no cells) wells from all wells, then subtracting the division of the average absorbency of each test duplicate by the average of the controls from 1. […] The IC50 is determined from the linear regression of a plot of the logarithm of the concentration versus percent inhibition.

In another assay the test system is HCT-116. Description: HCT-116 (colon) cell-based MTT proliferation assay. Particulars: Homo sapiens, HCT-116, 96 h, 4 days post addition of test compound, read-out: Antiproliferative Activity HCT 116 (colon) Assay IC50. How it is done:
The estrogen receptor negative epithelial breast carcinoma line (MDA-MB-435) was purchased from American Type Cell Culture Collection (ATCC; Rockville, Md.) and was grown in the medium recommended by ATCC. For analysis of the effect of the test compounds on growth of these cells, the cells were plated at 2000 cells per well in a 96-well tissue culture plate, and were incubated overnight at 37° C. with 5% CO2. The next day, the test compounds were dissolved in 100% dimethyl sulfoxide (DMSO) to yield a 10 mM stock solution. Each compound was diluted with sterile medium to 1 mM in a sufficient quantity to yield a final concentration of 120 μM. The compounds were then serially diluted in medium with 1.2% DMSO. One-fourth final volume of the diluted compounds was transferred to 96 well plates. Test compounds were assayed in duplicate. DMSO was added to a row of “control cells” such that the final concentration of DMSO in each well was 0.3%. Wells to which no cells were added served as the “blank.” Wells to which no inhibitor was added served as “no inhibitor control”. The plates were returned to the incubator, and 5 days post addition of test compound, were analyzed as described below.
3-(4,5-Dimethylthiazole-2-yl)-2,5-diphenyl-2H-tetrazolium bromide (thiazolyl blue; MTT) was added to each well to yield a final concentration of 1 mg/mL. The plates were then incubated at 37° C. for 3 hours. The plates were centrifuged at 1000 rpm for 5 minutes prior to aspiration of the MTT-containing medium. The MTT-containing medium was then removed and 100 μL 100% ethanol was added to each well to dissolve the resulting formazan metabolite. To ensure complete dissolution, plates were shaken for 15 minutes at room temperature. Absorbencies were read in a microtiter plate reader (Molecular Dynamics) at a wavelength of 570 nm with a 650 nm reference. Percent inhibition was calculated by subtracting the absorbance of the blank (no cell) wells from all wells, then subtracting the division of the average absorbance of each test duplicate by the average of the controls from 1.00. Inhibitory concentrations (IC50) were determined from the linear regression of a plot of the logarithm of the concentration versus the percent inhibition.
The colon adenocarcinoma line SW480 and the colon carcinoma line HCT-116 also were obtained from the ATCC and were tested according to the same protocol provided above for MDA-MB-435 cell based assay with the following modifications. Cell line SW480 was plated at 1000 cells per well and analyzed at 6 days post addition of the test compound. Cell line HCT-116 was plated at 1000 cells per well and analyzed at 4 days post addition of test compound.

Another assay has as its system SW480. Description: SW480 (colon) cell-based MTT proliferation assay. Particulars: Homo sapiens, SW480, 144 h, 6 days post addition of the test compound, read-out: IC50 for inhibition in the SW480 (colon) based assay. How it is done: (§1) The estrogen receptor negative epithelial breast carcinoma line (MDA-MB-435) was purchased from American Type Cell Culture Collection (ATCC; Rockville, Md.) and was grown in the medium recommended by ATCC. For analysis of the effect of the test compounds on growth of these cells, the cells were plated at 2000 cells per well in a 96-well tissue culture plate, and were incubated overnight at 37° C. with 5% CO2. The next day, the test compounds were dissolved in 100% dimethyl sulfoxide (DMSO) to yield a 10 mM stock solution. Each compound was diluted with sterile medium to 1 mM in a sufficient quantity to yield a final concentration of 120 μM. The compounds were then serially diluted in medium with 1.2% DMSO. […] The plates were returned to the incubator, and 5 days post addition of test compound, were analyzed as described below.
(§2) 3-(4,5-Dimethylthiazole-2-yl)-2,5-diphenyl-2H-tetrazolium bromide (thiazolyl blue; MTT) was added to each well to yield a final concentration of 1 mg/mL. […] Absorbencies were read in a microtiter plate reader (Molecular Dynamics) at a wavelength of 570 nm with a 650 nm reference. Percent inhibition was calculated by subtracting the absorbance of the blank (no cell) wells from all wells, then subtracting the division of the average absorbance of each test duplicate by the average of the controls from 1.00. […]

For another assay, the system named is MDA-MB-435. The assay is described as follows: MDA-MB-435 cell-based MTT proliferation assay. Conditions: Homo sapiens, MDA-MB-435, 120 h, 5 days post addition of test compound, read-out: IC50 for inhibition in the MDA-MB-435 cell-based assay. How it is done: as §1, §2

This passage reports IC50 and IC90 results from patent publication US7524840B2, “7,8-disubstituted pyrazolobenzodiazepines” (Hoffmann-La Roche Inc., priority 2004, dated 2009).

Regarding `COc1cc2c(cc1C#N)C(c1ccccc1Cl)=Nc1c(n[nH]c1C)N2` [IVb, 5-(2-chlorophenyl)-7-cyano-1,2-dihydro-8-methoxy-3-methyl-pyrazolo[3,4-b][1,4]benzodiazepine], the IC50 on Cyclin E/CDK2 was 184 nM; in the assay with FGF-stimulated HUVEC, 5 nM. The concentration for an effect of 90% (IC90) in the assay with H460a is 118 nM.
Consider `COCCOc1cc2c(cc1F)C(c1ccccc1Cl)=Nc1c(n[nH]c1C)N2` [IVf, 5-(2-chlorophenyl)-1,2-dihydro-7-fluoro-8-methoxyethoxy-3-methyl-pyrazolo[3,4-b][1,4]benzodiazepine], for which the IC50 against Cyclin E/CDK2 amounted to 395 nM; with HCT-116, 498 nM.
`Cc1cc2c(cc1C)C(c1ccccc1Cl)=NCC(=O)N2` [Iw, 5-(2-chlorophenyl)-1,3-dihydro-7,8-dimethyl-2H-1,4-benzodiazepin-2-one]: the IC50 in the assay with SW480 and in the assay with MDA-MB-435 was 950 nM in each case.
